From patent publication US10131652B2, “Pyrimidinyloxy benzene derivatives as herbicides” (E. I. DU PONT DE NEMOURS AND COMPANY, priority 2014, dated 2018)
Read-outs that look alike come from different tables or passages of the source.

Legend:
Assay in all cases: Test E pre-/postemergence plant response
Assay type in all cases: in vivo
[1] = system: Italian ryegrass (Lolium multiflorum); settings: scale 0 to 100, read-out: Plant response rating, Ryegrass, Italian; for pest or weed control at 16 g/ha: 16 g ai/ha; for pest or weed control at 31 g/ha: 31 g ai/ha; for pest or weed control at 62 g/ha: 62 g ai/ha; for pest or weed control at 125 g/ha: 125 g ai/ha
Outline: (§1)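 Pre-emergence: seeds sown in silt loam soil and sprayed with test chemicals in a non-phytotoxic solvent/surfactant mix. Post-emergence: plants at 2–18 cm (1- to 4-leaf stage) in peat/vermiculite medium treated with the same formulation. Visual rating versus controls after 7–21 days, 0 (no effect) to 100 (complete control).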

[2] = system: deadnettle (henbit deadnettle, Lamium amplexicaule); settings: scale 0 to 100, read-out: Plant response rating, Deadnettle; for pest or weed control at 16 g/ha: 16 g ai/ha; for pest or weed control at 31 g/ha: 31 g ai/ha; for pest or weed control at 62 g/ha: 62 g ai/ha; for pest or weed control at 125 g/ha: 125 g ai/ha
Outline: as §1

[3] = system: field poppy (Papaver rhoeas); settings: scale 0 to 100, read-out: Plant response rating, Field Poppy; for pest or weed control at 16 g/ha: 16 g ai/ha; for pest or weed control at 31 g/ha: 31 g ai/ha; for pest or weed control at 62 g/ha: 62 g ai/ha; for pest or weed control at 125 g/ha: 125 g ai/ha
Outline: as §1

[4] = system: field violet (Viola arvensis); settings: scale 0 to 100, read-out: Plant response rating, Field Violet; for pest or weed control at 16 g/ha: 16 g ai/ha; for pest or weed control at 31 g/ha: 31 g ai/ha; for pest or weed control at 62 g/ha: 62 g ai/ha; for pest or weed control at 125 g/ha: 125 g ai/ha
Outline: as §1

[5] = system: green foxtail (Setaria viridis); settings: scale 0 to 100, read-out: Plant response rating, Foxtail, Green; for pest or weed control at 16 g/ha: 16 g ai/ha; for pest or weed control at 31 g/ha: 31 g ai/ha; for pest or weed control at 62 g/ha: 62 g ai/ha; for pest or weed control at 125 g/ha: 125 g ai/ha
Outline: as §1

[6] = system: lambsquarters (Chenopodium album); settings: scale 0 to 100, read-out: Plant response rating, Lambsquarters; for pest or weed control at 16 g/ha: 16 g ai/ha; for pest or weed control at 31 g/ha: 31 g ai/ha; for pest or weed control at 62 g/ha: 62 g ai/ha; for pest or weed control at 125 g/ha: 125 g ai/ha
Outline: as §1

[7] = system: pigweed (Amaranthus retroflexus); settings: scale 0 to 100, read-out: Plant response rating, Pigweed; for pest or weed control at 16 g/ha: 16 g ai/ha; for pest or weed control at 31 g/ha: 31 g ai/ha; for pest or weed control at 62 g/ha: 62 g ai/ha; for pest or weed control at 125 g/ha: 125 g ai/ha
Outline: as §1

[8] = system: spring wheat (Triticum aestivum); settings: post-emergence, Postemergence, scale 0 to 100, read-out: Plant response rating, Wheat, Spring
Outline: as §1

[9] = system: wild buckwheat (Polygonum convolvulus); settings: Fallopia convolvulus, scale 0 to 100, read-out: Plant response rating, Buckwheat, Wild; for pest or weed control at 16 g/ha: 16 g ai/ha; for pest or weed control at 31 g/ha: 31 g ai/ha; for pest or weed control at 62 g/ha: 62 g ai/ha; for pest or weed control at 125 g/ha: 125 g ai/ha
Outline: as §1

[10] = system: wild radish (Raphanus raphanistrum); settings: scale 0 to 100, read-out: Plant response rating, Radish, Wild; for pest or weed control at 16 g/ha: 16 g ai/ha; for pest or weed control at 31 g/ha: 31 g ai/ha; for pest or weed control at 62 g/ha: 62 g ai/ha; for pest or weed control at 125 g/ha: 125 g ai/ha
Outline: as §1

[11] = system: winter wheat (Triticum aestivum); settings: post-emergence, Postemergence, scale 0 to 100, read-out: Plant response rating, Wheat, Winter
Outline: as §1

For `FC(F)c1cc(-c2ccccc2Oc2ncc(Cl)cn2)no1` [Compound 35, 5-chloro-2-[2-[5-(difluoromethyl)-3-isoxazolyl]phenoxy]pyrimidine], the pest or weed control at 16 g/ha ([1]; post-emergence, Postemergence) was 0%, the pest or weed control at 31 g/ha ([1]; post-emergence, Postemergence) was 5% and the pest or weed control at 62 g/ha ([1]; post-emergence, Postemergence) was 25%. The pest or weed control at 125 g/ha ([1]; post-emergence, Postemergence) was 60%, the pest or weed control at 16 g/ha ([1]; pre-emergence, Preemergence) was 0% and the pest or weed control at 31 g/ha ([1]; pre-emergence, Preemergence) was 25%. For the same compound, the pest or weed control at 62 g/ha ([1]; pre-emergence, Preemergence) was 35%, the pest or weed control at 125 g/ha ([1]; pre-emergence, Preemergence) was 75% and the pest or weed control at 16 g/ha ([2]; post-emergence, Postemergence) was 40%. The pest or weed control at 31 g/ha ([2]; post-emergence, Postemergence) was 60%, the pest or weed control at 62 g/ha ([2]; post-emergence, Postemergence) was 70% and the pest or weed control at 125 g/ha ([2]; post-emergence, Postemergence) was 80%. The pest or weed control at 16 g/ha ([2]; pre-emergence, Preemergence) was 35%, the pest or weed control at 31 g/ha ([2]; pre-emergence, Preemergence) was 80% and the pest or weed control at 62 g/ha ([2]; pre-emergence, Preemergence) was 95%. The pest or weed control at 125 g/ha ([2]; pre-emergence, Preemergence) was 95%, the pest or weed control at 16 g/ha ([3]; post-emergence, Postemergence) was 70% and the pest or weed control at 31 g/ha ([3]; post-emergence, Postemergence) was 75%. For the same compound, the pest or weed control at 62 g/ha ([3]; post-emergence, Postemergence) was 80%, the pest or weed control at 125 g/ha ([3]; post-emergence, Postemergence) was 100% and the pest or weed control at 16 g/ha ([3]; pre-emergence, Preemergence) was 75%. The pest or weed control at 31 g/ha ([3]; pre-emergence, Preemergence) was 80%, the pest or weed control at 62 g/ha ([3]; pre-emergence, Preemergence) was 90% and the pest or weed control at 125 g/ha ([3]; pre-emergence, Preemergence) was 90%. The pest or weed control at 16 g/ha ([4]; post-emergence, Postemergence) was 60%, the pest or weed control at 31 g/ha ([4]; post-emergence, Postemergence) was 65% and the pest or weed control at 62 g/ha ([4]; post-emergence, Postemergence) was 75%. It also gave a pest or weed control at 125 g/ha ([4]; post-emergence, Postemergence) of 75%, a pest or weed control at 16 g/ha ([4]; pre-emergence, Preemergence) of 15% and a pest or weed control at 31 g/ha ([4]; pre-emergence, Preemergence) of 70%. It also gave a pest or weed control at 62 g/ha ([4]; pre-emergence, Preemergence) of 90%, a pest or weed control at 125 g/ha ([4]; pre-emergence, Preemergence) of 100% and a pest or weed control at 16 g/ha ([5]; post-emergence, Postemergence) of 20%. The pest or weed control at 31 g/ha ([5]; post-emergence, Postemergence) was 35%, the pest or weed control at 62 g/ha ([5]; post-emergence, Postemergence) was 55% and the pest or weed control at 125 g/ha ([5]; post-emergence, Postemergence) was 55%. For the same compound, the pest or weed control at 16 g/ha ([5]; pre-emergence, Preemergence) was 5%, the pest or weed control at 31 g/ha ([5]; pre-emergence, Preemergence) was 90% and the pest or weed control at 62 g/ha ([5]; pre-emergence, Preemergence) was 90%. For the same compound, the pest or weed control at 125 g/ha ([5]; pre-emergence, Preemergence) was 100%, the pest or weed control at 16 g/ha ([6]; post-emergence, Postemergence) was 80% and the pest or weed control at 31 g/ha ([6]; post-emergence, Postemergence) was 80%. It also gave a pest or weed control at 62 g/ha ([6]; post-emergence, Postemergence) of 85%, a pest or weed control at 125 g/ha ([6]; post-emergence, Postemergence) of 90% and a pest or weed control at 16 g/ha ([6]; pre-emergence, Preemergence) of 65%. It also gave a pest or weed control at 31 g/ha ([6]; pre-emergence, Preemergence) of 85%, a pest or weed control at 62 g/ha ([6]; pre-emergence, Preemergence) of 90% and a pest or weed control at 125 g/ha ([6]; pre-emergence, Preemergence) of 100%. For the same compound, the pest or weed control at 16 g/ha ([7]; post-emergence, Postemergence) was 85%, the pest or weed control at 31 g/ha ([7]; post-emergence, Postemergence) was 90% and the pest or weed control at 62 g/ha ([7]; post-emergence, Postemergence) was 90%. For the same compound, the pest or weed control at 125 g/ha ([7]; post-emergence, Postemergence) was 90%, the pest or weed control at 16 g/ha ([7]; pre-emergence, Preemergence) was 90% and the pest or weed control at 31 g/ha ([7]; pre-emergence, Preemergence) was 95%. It also gave a pest or weed control at 62 g/ha ([7]; pre-emergence, Preemergence) of 100%, a pest or weed control at 125 g/ha ([7]; pre-emergence, Preemergence) of 100% and a plant injury at 16 g/ha ([8]; 16 g ai/ha) of 0%. The plant injury at 31 g/ha ([8]; 31 g ai/ha) was 10%, the plant injury at 62 g/ha ([8]; 62 g ai/ha) was 25% and the plant injury at 125 g/ha ([8]; 125 g ai/ha) was 40%. It also gave a pest or weed control at 16 g/ha ([9]; post-emergence, Postemergence) of 75%, a pest or weed control at 31 g/ha ([9]; post-emergence, Postemergence) of 85% and a pest or weed control at 62 g/ha ([9]; post-emergence, Postemergence) of 90%. For the same compound, the pest or weed control at 125 g/ha ([9]; post-emergence, Postemergence) was 95%, the pest or weed control at 16 g/ha ([9]; pre-emergence, Preemergence) was 60% and the pest or weed control at 31 g/ha ([9]; pre-emergence, Preemergence) was 75%. It also gave a pest or weed control at 62 g/ha ([9]; pre-emergence, Preemergence) of 90%, a pest or weed control at 125 g/ha ([9]; pre-emergence, Preemergence) of 100% and a pest or weed control at 16 g/ha ([10]; post-emergence, Postemergence) of 65%. For the same compound, the pest or weed control at 31 g/ha ([10]; post-emergence, Postemergence) was 75%, the pest or weed control at 62 g/ha ([10]; post-emergence, Postemergence) was 85% and the pest or weed control at 125 g/ha ([10]; post-emergence, Postemergence) was 95%. For the same compound, the pest or weed control at 16 g/ha ([10]; pre-emergence, Preemergence) was 100%, the pest or weed control at 31 g/ha ([10]; pre-emergence, Preemergence) was 95% and the pest or weed control at 62 g/ha ([10]; pre-emergence, Preemergence) was 100%. The pest or weed control at 125 g/ha ([10]; pre-emergence, Preemergence) was 100%, the plant injury at 16 g/ha ([11]; 16 g ai/ha) was 5% and the plant injury at 31 g/ha ([11]; 31 g ai/ha) was 15%. It also gave a plant injury at 62 g/ha ([11]; 62 g ai/ha) of 25% and a plant injury at 125 g/ha ([11]; 125 g ai/ha) of 40%.
